Assay results from patent US9187460B2, “Estrogen receptor modulators and uses thereof” (SERAGON PHARMACEUTICALS, INC., priority 2011, dated 2015).

Tests used:
[1] = molecular target: T1, ER-α (Homo sapiens, UniProt P03372); experiment: Breast Cancer Cell ER-α in Cell Western Assay (SP1); type: cell-based; conditions: MCF7, read-out: ER In-Cell Western Assay (SP1); Max Response
T1 construct: endogenous in cells; host or cells: MCF-7
Procedure: Breast Cancer Cell ER-α in Cell Western Assay (SP1)
MCF-7 cells were adjusted to a concentration of 200,000 cells per mL in RPMI containing 10% charcoal-stripped FBS and 20 mM HEPES. 16 microliters of the cell suspension (3200 cells) was added to each well of a poly-D-lysine 384 well plate, and the cells were incubated overnight to allow the cells to adhere. The following day an eleven point, serial semilog dilution of each compound was added to the cells in 16 μL at a final concentration ranging from 0.3-0.000003 μM. At 4 or 24 hr post compound addition, the cells were fixed (10% formalin in PBS) for 20 minutes. Cells were permeablized in PBS 0.1% Triton and blocked with LICOR blocking buffer (50 μl/well, 90′). The wells were then incubated overnight at 4° C. with SP1 rabbit monoclonal Ab (Thermo Scientific) diluted 1:1000 in LICOR blocking buffer/0.1% Tween-20. Wells which were treated with blocking buffer with Tween but no antibody were used as a background control. Wells were washed with 0.1% Tween-20/PBS and then incubated in goat anti-rabbit IRDye™ 800CW (LICOR Inc.; 1:1000) and DRAQ5 DNA dye (1:2000 for 2 mM stock) diluted in LICOR blocking buffer containing 0.1% Tween-20 and 0.01% SDS for 60 minutes. Cells were washed (50 μl/well, 5′ each) in 0.1% Tween-20/PBS. Plates were scanned on a LICOR Odyssey infrared imaging system. Integrated intensities in the 800 nm channel and 700 nm channel were measured to determine levels of ER and DNA respectively. Percent ER levels were determined as follows: (Integrated intensity 800 nm sample/integrated intensity 700 nm sample)/(Integrated intensity 800 nm untreated cells/integrated intensity 700 nm untreated cells)×100=% ER levels.

[2] = test system: MCF-7 cells; experiment: Breast Cancer Cell Viability Assay (MCF7 Viability Assay); type: cell-based; conditions: for IC50: Homo sapiens, MCF7, 120 h, read-out: MCF7 Viability Assay IC50; for MCF7 Viability Assay Max Response: MCF-7 cells, 5 days' compound exposure, CellTiter-Glo

T1 sequence (P03372 whole entry): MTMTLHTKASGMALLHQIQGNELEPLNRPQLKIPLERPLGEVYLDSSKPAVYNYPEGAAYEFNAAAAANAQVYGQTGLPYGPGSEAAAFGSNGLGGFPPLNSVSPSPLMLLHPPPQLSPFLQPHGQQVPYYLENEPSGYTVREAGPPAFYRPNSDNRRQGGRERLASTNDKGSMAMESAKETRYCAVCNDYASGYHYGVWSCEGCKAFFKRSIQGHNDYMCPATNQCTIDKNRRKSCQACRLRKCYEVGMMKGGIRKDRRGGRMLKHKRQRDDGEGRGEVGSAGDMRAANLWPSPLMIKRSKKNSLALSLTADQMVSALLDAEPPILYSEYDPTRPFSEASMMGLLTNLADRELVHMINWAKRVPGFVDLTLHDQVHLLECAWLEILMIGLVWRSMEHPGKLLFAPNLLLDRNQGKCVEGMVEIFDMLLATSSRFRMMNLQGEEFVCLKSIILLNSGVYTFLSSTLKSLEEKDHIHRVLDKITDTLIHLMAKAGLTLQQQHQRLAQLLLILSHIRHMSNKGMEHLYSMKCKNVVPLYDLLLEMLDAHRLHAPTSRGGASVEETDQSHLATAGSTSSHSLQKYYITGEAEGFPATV

CC1=C(c2cc(O)cc(Br)c2)C(c2ccc(OC[C@H](C)N3CC[C@@H](C)C3)cc2)Oc2ccc(O)cc21 (stereo partly drawn) [Example 1, 3-(3-Bromo-5-hydroxyphenyl)-4-methyl-2-(4-((S)-2-((R)-3-methylpyrrolidin-1-yl)propoxy)phenyl)-2H-chromen-6-ol]
Emax [1]: > 85%
IC50 [2]: < 1 nM
MCF7 Viability Assay Max Response [2]: ++ (++ = a single % value ≧50%)

CC1=C(c2cc(O)ccc2Br)C(c2ccc(OC[C@H](C)N3CC[C@@H](C)C3)cc2)Oc2ccc(O)cc21 (stereo partly drawn) [Example 2, 3-(2-Bromo-5-hydroxyphenyl)-4-methyl-2-(4-((S)-2-((R)-3-methylpyrrolidin-1-yl)propoxy)phenyl)-2H-chromen-6-ol]
Emax [1]: > 85%
IC50 [2]: < 1 nM
MCF7 Viability Assay Max Response [2]: ++ (++ = a single % value ≧50%)

CC1=C(c2ccccc2Br)C(c2ccc(OC[C@H](C)N3CC[C@@H](C)C3)cc2)Oc2ccc(O)cc21 (stereo partly drawn) [Example 3, 3-(2-Bromophenyl)-4-methyl-2-(4-((S)-2-((R)-3-methylpyrrolidin-1-yl)propoxy)phenyl)-2H-chromen-6-ol]
Emax [1]: 60 to 85%
IC50 [2]: < 1 nM
MCF7 Viability Assay Max Response [2]: ++ (++ = a single % value ≧50%)

CC1=C(c2ccc(Br)cc2C)C(c2ccc(OC[C@H](C)N3CC[C@@H](C)C3)cc2)Oc2ccc(O)cc21 (stereo partly drawn) [Example 4, 3-(4-Bromo-2-methylphenyl)-4-methyl-2-(4-((S)-2-((R)-3-methylpyrrolidin-1-yl)propoxy)phenyl)-2H-chromen-6-ol]
Emax [1]: 60 to 85%
IC50 [2]: > 1 nM
MCF7 Viability Assay Max Response [2]: ++ (++ = a single % value ≧50%)

CC1=C(c2ccc(C#N)cc2)C(c2ccc(OC[C@H](C)N3CC[C@@H](C)C3)cc2)Oc2ccc(O)cc21 (stereo partly drawn) [Example 5, 4-(6-Hydroxy-4-methyl-2-(4-((S)-2-((R)-3-methylpyrrolidin-1-yl)propoxy)phenyl)-2H-chromen-3-yl)benzonitrile]
Emax [1]: 60 to 85%
IC50 [2]: > 1 nM
MCF7 Viability Assay Max Response [2]: ++ (++ = a single % value ≧50%)

CC1=C(c2cccc(C#N)c2)C(c2ccc(OC[C@H](C)N3CC[C@@H](C)C3)cc2)Oc2ccc(O)cc21 (stereo partly drawn) [Example 6, 3-(6-Hydroxy-4-methyl-2-(4-((S)-2-((R)-3-methylpyrrolidin-1-yl)propoxy)phenyl)-2H-chromen-3-yl)benzonitrile]
Emax [1]: 60 to 85%
IC50 [2]: > 1 nM
MCF7 Viability Assay Max Response [2]: ++ (++ = a single % value ≧50%)

CC1=C(c2cc(O)cc(C#N)c2)C(c2ccc(OC[C@H](C)N3CC[C@@H](C)C3)cc2)Oc2ccc(O)cc21 (stereo partly drawn) [Example 7, 3-Hydroxy-5-(6-hydroxy-4-methyl-2-(4-((S)-2-((R)-3-methylpyrrolidin-1-yl)propoxy)phenyl)-2H-chromen-3-yl)benzonitrile]
Emax [1]: 60 to 85%
IC50 [2]: < 1 nM
MCF7 Viability Assay Max Response [2]: ++ (++ = a single % value ≧50%)

CC1=C(c2cc(O)ccc2C#N)C(c2ccc(OC[C@H](C)N3CC[C@@H](C)C3)cc2)Oc2ccc(O)cc21 (stereo partly drawn) [Example 8, 4-Hydroxy-2-(6-hydroxy-4-methyl-2-(4-((S)-2-((R)-3-methylpyrrolidin-1-yl)propoxy)phenyl)-2H-chromen-3-yl)benzonitrile]
Emax [1]: > 85%
IC50 [2]: < 1 nM
MCF7 Viability Assay Max Response [2]: ++ (++ = a single % value ≧50%)

CC1=C(c2cccc(O)c2C#N)C(c2ccc(OC[C@H](C)N3CC[C@@H](C)C3)cc2)Oc2ccc(O)cc21 (stereo partly drawn) [Example 9, 2-Hydroxy-6-(6-hydroxy-4-methyl-2-(4-((S)-2-((R)-3-methylpyrrolidin-1-yl)propoxy)phenyl)-2H-chromen-3-yl)benzonitrile]
Emax [1]: 60 to 85%
IC50 [2]: > 1 nM
MCF7 Viability Assay Max Response [2]: ++ (++ = a single % value ≧50%)

CC1=C(c2ccc(C#N)c(O)c2)C(c2ccc(OC[C@H](C)N3CC[C@@H](C)C3)cc2)Oc2ccc(O)cc21 (stereo partly drawn) [Example 10, 2-Hydroxy-4-(6-hydroxy-4-methyl-2-(4-((S)-2-((R)-3-methylpyrrolidin-1-yl)propoxy)phenyl)-2H-chromen-3-yl)benzonitrile]
Emax [1]: > 85%
IC50 [2]: > 1 nM
MCF7 Viability Assay Max Response [2]: ++ (++ = a single % value ≧50%)

CC1=C(c2ccc(O)c(C#N)c2)C(c2ccc(OC[C@H](C)N3CC[C@@H](C)C3)cc2)Oc2ccc(O)cc21 (stereo partly drawn) [Example 11, 2-Hydroxy-5-(6-hydroxy-4-methyl-2-(4-((S)-2-((R)-3-methylpyrrolidin-1-yl)propoxy)phenyl)-2H-chromen-3-yl)benzonitrile]
Emax [1]: > 85%
IC50 [2]: > 1 nM
MCF7 Viability Assay Max Response [2]: ++ (++ = a single % value ≧50%)

CC1=C(c2ccc(O)cc2C#N)C(c2ccc(OC[C@H](C)N3CC[C@@H](C)C3)cc2)Oc2ccc(O)cc21 (stereo partly drawn) [Example 12, 5-Hydroxy-2-(6-hydroxy-4-methyl-2-(4-((S)-2-((R)-3-methylpyrrolidin-1-yl)propoxy)phenyl)-2H-chromen-3-yl)benzonitrile]
Emax [1]: 60 to 85%
IC50 [2]: < 1 nM
MCF7 Viability Assay Max Response [2]: ++ (++ = a single % value ≧50%)

CC1=C(c2ccc(C#N)cc2C)C(c2ccc(OC[C@H](C)N3CC[C@@H](C)C3)cc2)Oc2ccc(O)cc21 (stereo partly drawn) [Example 13, 4-(6-Hydroxy-4-methyl-2-(4-((S)-2-((R)-3-methylpyrrolidin-1-yl)propoxy)phenyl)-2H-chromen-3-yl)-3-methylbenzonitrile]
Emax [1]: 60 to 85%
IC50 [2]: > 1 nM
MCF7 Viability Assay Max Response [2]: ++ (++ = a single % value ≧50%)

CC1=C(c2ccccc2C#N)C(c2ccc(OC[C@H](C)N3CC[C@@H](C)C3)cc2)Oc2ccc(O)cc21 (stereo partly drawn) [Example 14, 2-(6-Hydroxy-4-methyl-2-(4-((S)-2-((R)-3-methylpyrrolidin-1-yl)propoxy)phenyl)-2H-chromen-3-yl)benzonitrile]
Emax [1]: 60 to 85%
IC50 [2]: > 1 nM
MCF7 Viability Assay Max Response [2]: ++ (++ = a single % value ≧50%)

CC1=C(c2cccc(S(C)(=O)=O)c2)C(c2ccc(OC[C@H](C)N3CC[C@@H](C)C3)cc2)Oc2ccc(O)cc21 (stereo partly drawn) [Example 15, 4-Methyl-2-(4-((S)-2-((R)-3-methylpyrrolidin-1-yl)propoxy)phenyl)-3-(3-(methylsulfonyl)phenyl)-2H-chromen-6-ol]
Emax [1]: 60 to 85%
IC50 [2]: > 1 nM
MCF7 Viability Assay Max Response [2]: ++ (++ = a single % value ≧50%)

CC1=C(c2cc(O)cc(S(C)(=O)=O)c2)C(c2ccc(OC[C@H](C)N3CC[C@@H](C)C3)cc2)Oc2ccc(O)cc21 (stereo partly drawn) [Example 16, 3-(3-Hydroxy-5-(methylsulfonyl)phenyl)-4-methyl-2-(4-((S)-2-((R)-3-methylpyrrolidin-1-yl)propoxy)phenyl)-2H-chromen-6-ol]
Emax [1]: 60 to 85%
IC50 [2]: > 1 nM
MCF7 Viability Assay Max Response [2]: ++ (++ = a single % value ≧50%)

CC1=C(c2ccc(O)c(S(C)(=O)=O)c2)C(c2ccc(OC[C@H](C)N3CC[C@@H](C)C3)cc2)Oc2ccc(O)cc21 (stereo partly drawn) [Example 17, 3-(4-Hydroxy-3-(methylsulfonyl)phenyl)-4-methyl-2-(4-((S)-2-((R)-3-methylpyrrolidin-1-yl)propoxy)phenyl)-2H-chromen-6-ol]
Emax [1]: < 60%
IC50 [2]: > 1 nM
MCF7 Viability Assay Max Response [2]: + (+ = a single % value <50%)

CC1=C(c2ccc(S(C)(=O)=O)cc2C)C(c2ccc(OC[C@H](C)N3CC[C@@H](C)C3)cc2)Oc2ccc(O)cc21 (stereo partly drawn) [Example 18, 4-Methyl-3-(2-methyl-4-(methylsulfonyl)phenyl)-2-(4-((S)-2-((R)-3-methylpyrrolidin-1-yl)propoxy)phenyl)-2H-chromen-6-ol]
Emax [1]: 60 to 85%
IC50 [2]: > 1 nM
MCF7 Viability Assay Max Response [2]: ++ (++ = a single % value ≧50%)

CC1=C(c2cccc(O)c2)C(c2ccc(OCCN3CCSCC3)cc2)Oc2ccc(O)cc21 (stereo not drawn) [Example 19, 3-(3-Hydroxyphenyl)-4-methyl-2-(4-(2-thiomorpholinoethoxy)phenyl)-2H-chromen-6-ol]
Emax [1]: 60 to 85%
IC50 [2]: < 1 nM
MCF7 Viability Assay Max Response [2]: + (+ = a single % value <50%)

CC1=C(c2cccc(O)c2)C(c2ccc(OCCN3CCO[C@@H](C)C3)cc2)Oc2ccc(O)cc21 (stereo partly drawn) [Example 20, 3-(3-Hydroxyphenyl)-4-methyl-2-(4-(2-((S)-2-methylmorpholino)ethoxy)phenyl)-2H-chromen-6-ol]
Emax [1]: < 60%
IC50 [2]: < 1 nM
MCF7 Viability Assay Max Response [2]: + (+ = a single % value <50%)

CC1=C(c2cccc(O)c2)C(c2ccc(OCCN3CCOCC3)cc2)Oc2ccc(O)cc21 (stereo not drawn) [Example 21, 3-(3-Hydroxyphenyl)-4-methyl-2-(4-(2-morpholinoethoxy)phenyl)-2H-chromen-6-ol]
Emax [1]: 60 to 85%
IC50 [2]: < 1 nM
MCF7 Viability Assay Max Response [2]: + (+ = a single % value <50%)

CC1=C(c2cccc(O)c2)C(c2ccc(OCCN3CCO[C@H](C)C3)cc2)Oc2ccc(O)cc21 (stereo partly drawn) [Example 22, 3-(3-Hydroxyphenyl)-4-methyl-2-(4-(2-((R)-2-methylmorpholino)ethoxy)phenyl)-2H-chromen-6-ol]
Emax [1]: < 60%
IC50 [2]: > 1 nM
MCF7 Viability Assay Max Response [2]: + (+ = a single % value <50%)
